# Source: patent US10821115B2, “Compounds that inhibit Mcl-1 protein” (priority 2017, dated 2020)
# Test system: human multiple myeloma cell line, OPM-2
# Assay: Cell viability assay (OPM-2 10 FBS), CellTiter-Glo
# Format: cell-based
# Conditions: Homo sapiens, OPM-2, 16 h, read-out: OPM-2 10% FBS IC50 IP, OPM-2 cells, 10% FBS, 16 h, CellTiter-Glo
# Method: Cell viability assay (OPM-2 10 FBS)
# The human multiple myeloma cell line, OPM-2, was cultured in complete growth medium containing RPMI 1640 and 10% fetal bovine serum (FBS). Cells were seeded into 384-well plates at 3000 cells/well density in complete growth medium containing 10% FBS, and incubated for 16 h with serially diluted test compounds in a 37° C. incubator with 5% CO2. Cell viability was tested using CellTiter-Glo® assay (Promega, Madison, Wis.) according to the manufacturer recommendations. Luminescence was determined using an EnVision® Multilabel plate reader 25 min after the addition of detection reagent. IC50 values were then calculated with Xlfit using a logistical 4-parameter fit model in GraphPad Prism (GraphPad Software, San Diego, Calif.) or in Genedata Screener® (Genedata, Basel, Switzerland).
row,Structure (SMILES),IC50 [µM]
1,"C[C@@H]1[C@@H](C)C/C=C/[C@](O)(C#CCCc2ccccn2)[C@@H]2CC[C@H]2CN2C[C@@]3(CCCc4cc(Cl)ccc43)COc3ccc(cc32)C(=O)NS1(=O)=O [Example 100455, (1S,3′R,6′R,7′R,8′E,11′S,12′R)-6-chloro-7′-hydroxy-11′,12′-dimethyl-7′-(4-(2-pyridinyl)-1-butyn-1-yl)-3,4-dihydro-2H,15′H-spiro[naphthalene-1,22′-[20]oxa[13]thia[1,14]diazatetracyclo [14.7.2.0~3,6~.0~19,24~]pentacosa[8,16,18,24]tetraen]-15′-one 13′,13′-dioxide]",0.14
2,"C[C@@H]1[C@@H](C)CCC[C@@](CO)(CN2CCOCC2)[C@@H]2CC[C@H]2CN2C[C@@]3(CCCc4cc(Cl)ccc43)COc3ccc(cc32)C(=O)NS1(=O)=O [Example 100341, (1S,3′R,6′R,7′S,11′S,12′R)-6-chloro-7′-(hydroxymethyl)-11′,12′-dimethyl-7′-(4-morpholinylmethyl)-3,4-dihydro-2H,15′H-spiro[naphthalene-1,22′-[20]oxa[13]thia[1,14]diazatetracyclo [14.7.2.0~3,6~.0~19,24~]pentacosa[16,18,24]trien]-15′-one 13′,13′-dioxide]",1.94

# Same assay, conditions: Homo sapiens, OPM-2, 16 h, read-out: OPM-2 10% FBS IC50 IP, OPM-2 cells, 10% FBS, 16 h incubation
row,Structure (SMILES),IC50 [µM]
1,"C[C@@H]1[C@@H](C)C/C=C/[C@@](O)(CN2CCOC[C@@H]2Cn2ccnc2)[C@@H]2CC[C@H]2CN2C[C@@]3(CCCc4cc(Cl)ccc43)COc3ccc(cc32)C(=O)NS1(=O)=O [Example 100, (1 S,3′R,6′R,7′S,8′E,11′S, 12′R)-6-chloro-7′-hydroxy-7′-(((3S)-3-(1H-imidazol-1-ylmethyl)-4-morpholinyl)methyl)-11′,12′-dimethyl-3,4-dihydro-2H, 15′H-spiro[naphthalene-1,22′-[20]oxa[13]thia[1,14]diazatetracyclo[14.7.2.0-3,6˜.0˜19,24˜]pentacosa[8,16,18,24]tetraen]-15′-one 13′,13′-dioxide]",1.65
2,"CCO[C@]1(CN2CCN3CCOC[C@@H]3C2)/C=C/C[C@H](C)[C@@H](CCOC)S(=O)(=O)NC(=O)c2ccc3c(c2)N(C[C@@H]2CC[C@H]21)C[C@@]1(CCCc2cc(Cl)ccc21)CO3 [Example 13, (1 S,3′R,6′R,7′R,8′E,11′S,12′R)-6-chloro-7′-ethoxy-7′-((9aS)-hexahydropyrazino[2,1-c][1,4]oxazin-8(1H)-ylmethyl)-12′-(2-methoxyethyl)-11′-methyl-3,4-dihydro-2H,15′H-spiro[naphthalene-1,22′-[20]oxa[13]thia[1,14]diazatetracyclo[14.7.2.0-3,6˜.0˜19,24˜]pentacosa[8,16,18,24]tetraen]-15′-one 13′,13′-dioxide]",0.063
3,"CO[C@@]1(CN2CCN3CCCC[C@H]3C2)/C=C/C[C@H](C)[C@@H](C)S(=O)(=O)NC(=O)c2ccc3c(c2)N(C[C@@H]2CC[C@H]21)C[C@@]1(CCCc2cc(Cl)ccc21)CO3 [Example 79, (1S,3′R,6′R,7′S,8′E,11′S,12′R)-6-chloro-7′-methoxy-11′,12′-dimethyl-7′-((9aS)-octahydro-2H-pyrido[1,2-a]pyrazin-2-ylmethyl)-3,4-dihydro-2H,15′H-spiro[naphthalene-1,22′-[20]oxa[13]thia[1,14]diazatetracyclo [14.7.2.0~3,6~.0~19,24~]pentacosa[8,16,18,24]tetraen]-15′-one 13′,13′-dioxide]",0.245
4,"CCO[C@]1(CN2CCN(C(C)C)CC2)/C=C/C[C@H](C)[C@@H](CCOC)S(=O)(=O)NC(=O)c2ccc3c(c2)N(C[C@@H]2CC[C@H]21)C[C@@]1(CCCc2cc(Cl)ccc21)CO3 [Example 16, (1S,3′R,6′R,7′R,8′E,11′S,12′R)-6-chloro-7′-ethoxy-12′-(2-methoxyethyl)-11′-methyl-7′-((4-(1-methylethyl)-1-piperazinyl)methyl)-3,4-dihydro-2H, 15′H-spiro[naphthalene-1,22′-[20]oxa[13]thia[1,14]diazatetracyclo[14.7.2.0-3,6˜.0˜19,24˜]pentacosa[8,16,18,24]tetraen]-15′-one 13′,13′-dioxide]",0.053
5,"CCO[C@@]1(CN2CCN3CCOC[C@@H]3C2)/C=C/C[C@H](C)[C@@H](CCOC)S(=O)(=O)NC(=O)c2ccc3c(n2)N(C[C@@H]2CC[C@H]21)C[C@@]1(CCCc2cc(Cl)ccc21)CO3 [Example 369, (1S,3′R,6′R,7′S,8′E,11′S,12′R)-6-chloro-7′-ethoxy-7′-((9aS)-hexahydropyrazino[2,1-c][1,4]oxazin-8(1H)-ylmethyl)-12′-(2-methoxyethyl)-11′-methyl-3,4-dihydro-2H,15′H-spiro[naphthalene-1,22′-[20]oxa[13]thia[1,14,25]triazatetracyclo [14.7.2.0~3,6~.0~19,24~]pentacosa[8,16,18,24]tetraen]-15′-one 13′,13′-dioxide]",0.071
6,"CO[C@]1(CN2CCN(CC(F)(F)F)CC2)/C=C/C[C@H](C)[C@@H](C)S(=O)(=O)NC(=O)c2ccc3c(c2)N(C[C@@H]2CC[C@H]21)C[C@@]1(CCCc2cc(Cl)ccc21)CO3 [Example 93, (1S,3′R,6′R,7′R,8′E,11′S,12′R)-6-chloro-7′-methoxy-11′,12′-dimethyl-7′-((4-(2,2,2-trifluoroethyl)-1-piperazinyl)methyl)-3,4-dihydro-2H,15′H-spiro[naphthalene-1,22′-[20]oxa[13]thia[1,14]diazatetracyclo [14.7.2.0~3,6~.0~19,24~]pentacosa[8,16,18,24]tetraen]-15′-one 13′,13′-dioxide]",0.924
7,"CO[C@]1(CN2CCN3CCCC[C@H]3C2)/C=C/C[C@H](C)[C@@H](C)S(=O)(=O)NC(=O)c2ccc3c(c2)N(C[C@@H]2CC[C@H]21)C[C@@]1(CCCc2cc(Cl)ccc21)CO3 [Example 78, (1S,3′R,6′R,7′R,8′E,11′S,12′R)-6-chloro-7′-methoxy-11′,12′-dimethyl-7′-((9aS)-octahydro-2H-pyrido[1,2-a]pyrazin-2-ylmethyl)-3,4-dihydro-2H,15′H-spiro[naphthalene-1,22′-[20]oxa[13]thia[1,14]diazateracyclo [14.7.2.0~3,6~.0~19,24~]pentacosa[8,16,18,24]tetraen]-15′-one 13′,13′-dioxide]",0.175
8,"CO[C@@]1(CN2CCN(CC(CO)CO)CC2)/C=C/C[C@H](C)[C@@H](C)S(=O)(=O)NC(=O)c2ccc3c(c2)N(C[C@@H]2CC[C@H]21)C[C@@]1(CCCc2cc(Cl)ccc21)CO3 [Example 310, (1S,3′R,6′R,7′S,8′E,11′S,12′R)-6-chloro-7′-((4-(3-hydroxy-2-(hydroxymethyl)propyl)-1-piperazinyl)methyl)-7′-methoxy-11′,12′-dimethyl-3,4-dihydro-2H,15′H-spiro[naphthalene-1,22′-[20]oxa[13]thia[1,14]diazatetracyclo [14.7.2.0~3,6~.0~19,24~]pentacosa[8,16,18,24]tetraen]-15′-one 13′,13′-dioxide]",0.517

# Same assay, conditions: read-out: OPM-2 10% FBS IC50 IP; OPM-2 cells, 10% FBS, 16 h, CellTiter-Glo
row,Structure (SMILES),IC50 [µM]
1,"CO[C@]1(c2cccnc2F)/C=C/C[C@H](C)[C@@H](C)S(=O)(=O)NC(=O)c2ccc3c(c2)N(C[C@@H]2CC[C@H]21)C[C@@]1(CCCc2cc(Cl)ccc21)CO3 [Example 100325, (1S,3′R,6′R,7′R,8′E,11′S,12′R)-6-chloro-7′-(2-fluoro-3-pyridinyl)-7′-methoxy-11′,12′-dimethyl-3,4-dihydro-2H,15′H-spiro[naphthalene-1,22′-[20]oxa[13]thia[1,14]diazatetracyclo [14.7.2.0~3,6~.0~19,24~]pentacosa[8,16,18,24]tetraen]-15′-one 13′,13′-dioxide]",0.482

# Same assay, conditions: read-out: OPM-2 10% FBS IC50 IP; OPM-2 cells, 10% FBS, 16 h incubation
row,Structure (SMILES),IC50 [µM]
1,"C[C@@H]1[C@@H](C)C/C=C/[C@@](O)(CN2CCN3CCOC[C@@H]3C2)[C@@H]2CC[C@H]2CN2C[C@@]3(CCCc4cc(Cl)ccc43)COc3ccc(cc32)C(=O)NS1(=O)=O [Example 193, (1S,3′R,6′R,7′S,8′E,11′S,12′R)-6-chloro-7′-((9aS)-hexahydropyrazino[2,1-c][1,4]oxazin-8(1H)-ylmethyl)-7′-hydroxy-11′,12′-dimethyl-3,4-dihydro-2H, 15′H-spiro[naphthalene-1,22′-[20]oxa[13]thia[1,14]diazatetracyclo[14.7.2.0-3,6˜.0˜19,24˜]pentacosa[8,16,18,24]tetraen]-15′-one 13′,13′-dioxide]",0.023
2,"C[C@@H]1[C@@H](C)CCC[C@@](O)(CN2CCN3CCOC[C@@H]3C2)[C@@H]2CC[C@H]2CN2C[C@@]3(CCCc4cc(Cl)ccc43)COc3ccc(cc32)C(=O)NS1(=O)=O [Example 7, (1S,3′R,6′R,7′S,11′S,12′R)-6-CHLORO-7′-((9AS)-HEXAHYDROPYRAZINO [2,1-C][1,4]OXAZIN-8(1H)-YLMETHYL)-7′-HYDROXY-11′,12′-DIMETHYL-3,4-DIHYDRO-2H, 15′H-SPIRO[NAPHTHALENE-1,22′-[20]OXA[13]THIA[1,14]DIAZATETRACYCLO[14.7.2.0-3,6˜.0˜19,24˜]PENT ACOSA[16,18,24]TRIEN]-15′-ONE 13′,13′-DIOXIDE]",0.025
3,"CO[C@@]1(CN2CCN3CCN(C(C)=O)C[C@@H]3C2)/C=C/C[C@H](C)[C@@H](C)S(=O)(=O)NC(=O)c2ccc3c(c2)N(C[C@@H]2CC[C@H]21)C[C@@]1(CCCc2cc(Cl)ccc21)CO3 (single isomer, unassigned) [Example 226]",0.049
